According to patent EP4745118A1, “HYDROXAMIC ACID COMPOUND OR PHARMACEUTICALLY ACCEPTABLE SALT THEREOF, AND USE THEREOF AND PREPARATION METHOD THEREFOR” (priority 2023, dated 2025):

How the values were obtained:
[1] = system: Shigella flexneri; test: In vitro antibacterial activity, agar dilution method (MIC); type: cell-based; conditions: Shigella flexneri ATCC 12022, 35°C, 18 hours
Method: According to the relevant operating procedures of the Clinical Laboratory Standards Institute (CLSI) in the United States, an antimicrobial susceptibility testing was conducted using the agar dilution method. A 1920 µg/mL stock solution was serially diluted twofold with sterile water to obtain dilutions of 960, 480, 240, 120, 60, 30, 15, 7.5, 3.75, 1.88, 0.94, 0.47 µg/mL, and 1 mL of the dilution was taken respectively from the dilutions with different concentrations and added to a Petri dish, to which 14 mL of melted MH agar medium was added and mixed thoroughly, and the final concentration of the drug in the petri dish is 128, 64, 32, 16, 8, 4, 2, 1, 0.5, 0.25, 0.12, 0.06, and 0.03 µ g/mL, respectively. The agar was allowed to solidify and set aside for later use.
(§1) The test bacteria were propagated in broth and adjusted to a turbidity of 0.5 McFarland (approximately 1-2 × 10^8 CFU/mL) using a turbidimeter before inoculation. The 0.5 McFarland bacterial solution was then diluted 10-fold in broth (approximately 1-2 × 10^7 CFU/mL). A multipoint inoculator was used to inoculate the above bacterial solution onto a series of plates containing different concentrations of drugs (with an inoculation amount of approximately 10^4 CFU per inoculation site). After incubation at a constant temperature of 35°C for 18 hours, results were observed. The minimum concentration of drugs contained in sterile growth plates was determined as the Minimal Inhibitory Concentration (MIC).

[2] = system: Escherichia coli ATCC BAA2469 (CRE, NDM-1-producing); test: In vivo antibacterial activity, intraperitoneal infection in mice (survival over 7 days); conditions: for Animal survival rate / Number of surviving animals: mice, one intravenous administration 1 hour post-infection, 7 days; for Number of surviving animals: 5 animals per group
Method: Mice were randomly grouped based on body weight, with 5 mice in each group, regardless of gender. The infectious bacteria was Escherichia coli ATCC BAA2469 (CRE, NDM-1-producing). The test bacterial solution was diluted with 5% high-activity dry yeast. Mice received intraperitoneal injection of 0.5 mL of 100% minimum lethal dose (100% MLD) bacterial solution. One intravenous administration was given at 1 hour post-infection at a dose volume of 10 mL/kg. Animal survival numbers were observed over 7 days, and survival rates were calculated.

[3] = system: Pseudomonas aeruginosa; test: In vitro antibacterial activity, agar dilution method (MIC); type: cell-based; conditions: Pseudomonas aeruginosa PAO1; agar dilution, 35°C, 18 hours
Method: (§2) According to the relevant operating procedures of the Clinical Laboratory Standards Institute (CLSI) in the United States, an antimicrobial susceptibility testing was conducted using the agar dilution method. […]. The agar was allowed to solidify and set aside for later use.
as §1

[4] = system: Pantoea agglomerans; test: as above; type: cell-based; conditions: Pantoea agglomerans ATCC 27993; agar dilution, 35°C, 18 hours
Method: as §2, §1

[5] = system: Citrobacter freundii; test: as above; type: cell-based; conditions: Citrobacter freundii ATCC 43864; agar dilution, 35°C, 18 hours
Method: as §2, §1

[6] = system: Klebsiella pneumoniae; test: as above; type: cell-based; conditions: agar dilution, 35°C, 18 hours
Method: as §2, §1

[7] = system: Proteus mirabilis; test: as above; type: cell-based; conditions: Proteus mirabilis ATCC 49565; agar dilution, 35°C, 18 hours
Method: as §2, §1

[8] = system: Escherichia coli; test: as above; type: cell-based; conditions: agar dilution, 35°C, 18 hours
Method: as §2, §1

[9] = system: Proteus vulgaris; test: as above; type: cell-based; conditions: Proteus vulgaris ATCC 29905; agar dilution, 35°C, 18 hours
Method: as §2, §1

[10] = system: Serratia marcescens; test: as above; type: cell-based; conditions: Serratia marcescens ATCC 21074; agar dilution, 35°C, 18 hours
Method: as §2, §1

[11] = system: Enterobacter aerogenes; test: as above; type: cell-based; conditions: Enterobacter aerogenes ATCC 13048; agar dilution, 35°C, 18 hours
Method: as §2, §1

[12] = system: Enterobacter cloacae; test: as above; type: cell-based; conditions: Enterobacter cloacae CDC1000654 (NDM-1-producing); agar dilution, 35°C, 18 hours
Method: According to the relevant operating procedures of the Clinical Laboratory Standards Institute (CLSI) in the United States, an antimicrobial susceptibility testing was conducted using the agar dilution method. […] The agar was allowed to solidify and set aside for later use.
as §1

For Colistin, the MIC [1] was 0.5 µg/mL, the “effective dose of in vivo antibacterial activity” value ([2]; mice with intraperitoneal infection by Escherichia coli ATCC BAA2469, intravenous) was “below 1.5 mg/kg” and the Animal survival rate ([2]; dose 0.35 mg/kg) was 0%. For the same substance, the “Number of surviving animals” value ([2]; dose 0.35 mg/kg) was 0 individuals, the Animal survival rate ([2]; dose 0.7 mg/kg) was 20% and the “Number of surviving animals” value ([2]; dose 0.7 mg/kg) was 1 individuals. For the same substance, the Animal survival rate ([2]; dose 1.4 mg/kg) was 80%, the “Number of surviving animals” value ([2]; dose 1.4 mg/kg) was 4 individuals and the MIC [3] was 2 µg/mL. For the same substance, the MIC [4] was 0.5 µg/mL, the MIC [5] was 0.5 µg/mL and the MIC ([6]; Klebsiella pneumoniae 09-20 (mcr-1)) was 16 µg/mL. The MIC ([6]; Klebsiella pneumoniae 17-R27 (CRE)) was 16 µg/mL, the MIC ([6]; Klebsiella pneumoniae 18-8 (ESBLs-producing)) was 0.5 µg/mL and the MIC ([6]; Klebsiella pneumoniae ATCC 700603 (ESBLs-producing)) was 0.5 µg/mL. It also gave an MIC ([6]; Klebsiella pneumoniae ATCC BAA-2146 (CRE, NDM-1-producing)) of 1 µg/mL, an MIC [7] greater than 128 µg/mL and an MIC ([8]; Escherichia coli 13-43 (mcr-1)) of 16 µg/mL. The MIC ([8]; Escherichia coli 17-R28 (CRE, NDM-1-producing)) was 0.5 µg/mL, the MIC ([8]; Escherichia coli ATCC 2469 (CRE, NDM-1-producing)) was 0.5 µg/mL and the MIC ([8]; Escherichia coli ATCC 35218 (ESBLs-producing)) was 0.5 µg/mL. For the same substance, the MIC [9] was greater than 128 µg/mL, the MIC [10] was greater than 128 µg/mL and the MIC [11] was 0.5 µg/mL. It also gave an MIC [12] of 0.5 µg/mL.
